In paper doi:10.1101/2025.08.01.668199, “Vacuolar Phosphatidylinositol 3,4,5-trisphosphate controls fusion through binding Vam7, and membrane microdomain assembly” (bioRxiv, 2025):

What was measured:
Vam7^Y42A = molecular target: T1, Vam7^Y42A (Saccharomyces cerevisiae, UniProt P32912, Y42A); test: bio-layer interferometry, biotinylated lipid on streptavidin probe; format: binding
T1 construct: GST-Vam7^Y42A

Vam7 = molecular target: T2, Vam7 (Saccharomyces cerevisiae, UniProt P32912); test: as above; format: binding
T2 construct: GST-Vam7
T2 sequence (P32912 1-316): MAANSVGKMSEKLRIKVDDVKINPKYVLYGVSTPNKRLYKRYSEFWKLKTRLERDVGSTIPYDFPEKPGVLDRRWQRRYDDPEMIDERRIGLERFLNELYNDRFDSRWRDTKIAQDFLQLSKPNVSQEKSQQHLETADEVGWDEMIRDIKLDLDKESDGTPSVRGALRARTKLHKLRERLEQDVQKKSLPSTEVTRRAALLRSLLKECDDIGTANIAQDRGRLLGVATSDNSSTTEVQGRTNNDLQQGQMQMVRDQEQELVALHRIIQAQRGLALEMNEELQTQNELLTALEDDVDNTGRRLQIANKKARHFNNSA

T1 sequence (P32912 whole entry Y42A): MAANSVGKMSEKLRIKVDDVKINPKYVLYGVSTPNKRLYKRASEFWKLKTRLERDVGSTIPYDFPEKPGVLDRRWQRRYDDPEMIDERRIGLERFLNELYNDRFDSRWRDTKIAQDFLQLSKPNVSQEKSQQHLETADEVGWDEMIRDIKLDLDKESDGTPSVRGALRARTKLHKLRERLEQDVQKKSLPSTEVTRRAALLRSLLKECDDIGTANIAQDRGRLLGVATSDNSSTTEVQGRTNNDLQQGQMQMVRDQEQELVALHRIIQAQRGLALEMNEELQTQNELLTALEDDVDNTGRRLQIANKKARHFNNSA

PI(3,4,5)P3
Kd (Vam7^Y42A): ~0.21 µM | Kd (Vam7): ~0.07 µM

PI3P
Kd (Vam7): ~0.2 µM
